{
  "source": "patent US20090325952A1",
  "about": "“PYRAZOLO[3,4-B]PYRIDINE COMPOUNDS, AND THEIR USE AS PDE4 INHIBITORS” (Glaxo Group Limited, priority 2006, published 2009)",
  "target": "T1, PDE6 (from bovine retina) (Bos taurus, UniProt P11541+P23439)",
  "T1 construct": "PDE6 can be purified from bovine retina; from tissue; host or cells: bovine retina",
  "T1 sequence (P11541 2-856 limits assumed)": "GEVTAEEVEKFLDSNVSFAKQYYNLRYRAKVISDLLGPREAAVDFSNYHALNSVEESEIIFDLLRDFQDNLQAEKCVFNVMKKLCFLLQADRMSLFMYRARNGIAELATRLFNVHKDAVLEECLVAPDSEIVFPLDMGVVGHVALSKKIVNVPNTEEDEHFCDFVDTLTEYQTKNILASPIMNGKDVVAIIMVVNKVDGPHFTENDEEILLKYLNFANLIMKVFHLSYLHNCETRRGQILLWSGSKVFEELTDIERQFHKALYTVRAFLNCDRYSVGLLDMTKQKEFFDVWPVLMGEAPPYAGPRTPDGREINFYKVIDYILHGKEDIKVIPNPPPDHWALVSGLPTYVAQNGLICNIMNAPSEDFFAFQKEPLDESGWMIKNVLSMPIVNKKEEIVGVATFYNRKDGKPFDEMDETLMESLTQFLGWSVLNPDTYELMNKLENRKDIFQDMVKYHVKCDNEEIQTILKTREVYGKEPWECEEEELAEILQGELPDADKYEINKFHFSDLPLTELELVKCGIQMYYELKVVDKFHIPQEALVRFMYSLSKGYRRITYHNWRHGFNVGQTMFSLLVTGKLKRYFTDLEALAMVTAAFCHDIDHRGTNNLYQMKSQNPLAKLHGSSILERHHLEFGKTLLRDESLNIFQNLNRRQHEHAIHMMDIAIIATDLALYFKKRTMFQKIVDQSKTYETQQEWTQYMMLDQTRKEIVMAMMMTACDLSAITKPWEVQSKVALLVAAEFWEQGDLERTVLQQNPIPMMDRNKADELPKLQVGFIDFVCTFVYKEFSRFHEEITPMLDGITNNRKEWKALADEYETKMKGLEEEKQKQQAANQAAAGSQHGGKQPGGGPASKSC",
  "T1 sequence (P23439 2-850 limits assumed)": "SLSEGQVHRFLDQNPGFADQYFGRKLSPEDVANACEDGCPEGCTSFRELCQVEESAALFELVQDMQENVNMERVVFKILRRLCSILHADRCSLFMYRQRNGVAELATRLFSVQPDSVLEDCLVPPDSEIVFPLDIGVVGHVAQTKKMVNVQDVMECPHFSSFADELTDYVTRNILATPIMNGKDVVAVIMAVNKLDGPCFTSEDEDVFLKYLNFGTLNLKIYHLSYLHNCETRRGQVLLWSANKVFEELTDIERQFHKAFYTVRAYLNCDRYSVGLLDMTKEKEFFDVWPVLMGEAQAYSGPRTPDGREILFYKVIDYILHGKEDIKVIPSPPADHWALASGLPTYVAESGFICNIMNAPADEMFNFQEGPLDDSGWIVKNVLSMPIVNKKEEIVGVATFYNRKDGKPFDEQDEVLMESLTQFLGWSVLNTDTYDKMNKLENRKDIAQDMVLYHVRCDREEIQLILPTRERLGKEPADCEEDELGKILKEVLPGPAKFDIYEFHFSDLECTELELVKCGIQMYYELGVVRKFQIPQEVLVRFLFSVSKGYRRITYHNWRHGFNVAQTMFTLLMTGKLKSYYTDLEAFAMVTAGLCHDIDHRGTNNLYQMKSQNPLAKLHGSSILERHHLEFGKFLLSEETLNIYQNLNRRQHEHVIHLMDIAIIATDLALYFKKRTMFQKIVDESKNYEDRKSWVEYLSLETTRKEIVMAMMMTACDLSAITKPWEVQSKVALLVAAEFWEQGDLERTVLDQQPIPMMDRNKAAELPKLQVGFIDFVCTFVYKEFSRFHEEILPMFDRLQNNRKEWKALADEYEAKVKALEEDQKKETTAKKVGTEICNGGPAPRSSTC",
  "assay": "Inhibition of PDE6 activity (FP or SPA assays)",
  "type": "biochemical",
  "conditions": "selectivity PDE4B over PDE6",
  "source_text": "PDE6 can be purified from bovine retina as described by: P. Catty and P. Deterre, “Activation and solubilization of the retinal cGMP-specific phosphodiesterase by limited proteolysis”, Eur. J. Biochem., 1991, 199, 263-269; A. Tar et al. “Purification of bovine retinal cGMP phosphodiesterase”, Methods in Enzymology, 1994, 238, 3-12; and/or D. Srivastava et al. “Effects of magnesium on cyclic GMP hydrolysis by the bovine retinal rod cyclic GMP phosphodiesterase”, Biochem. J, 1995, 308, 653-658.\nThe ability of compounds to inhibit catalytic activity at PDE4B or 4D (human recombinant), PDE3 (from bovine aorta), PDE5 (human recombinant) or PDE6 (from bovine retina) can optionally be determined by Scintillation Proximity Assay (SPA) in a 96-well format.\nTest compounds (as a solution in DMSO, suitably about 2 microlitre (ul) volume of DMSO solution) are preincubated at ambient temperature (room temperature, e.g. 19-23° C.) in Wallac Isoplates (code 1450-514) with PDE enzyme in 50 mM Tris-HCl buffer pH 7.5, 8.3 mM MgCl2, 1.7 mM EGTA, 0.05% (w/v) bovine serum albumin for 10-30 minutes (usually 30 minutes). The enzyme concentration is adjusted so that no more than 20% hydrolysis of the substrate defined below occurs in control wells without compound, during the incubation. […] Bound radioactive product is measured using a WALLAC TRILUX 1450 Microbeta scintillation counter. […]",
  "data": [
    {"smiles": "CCc1nc2c(cnn2CC)c(NC2CCOCC2)c1CNC(=O)c1ccc(NC(=O)CCCCCCCN(C)CCO)cc1", "note": "[Example 1B, N-{[1,6-diethyl-4-(tetrahydro-2H-pyran-4-ylamino)-1H-pyrazolo[3,4-b]pyridin-5-yl]methyl}-4-({8-[(2-hydroxyethyl)(methyl)amino]octanoyl}amino)benzamide]", "values": [
      {"measurement": "PDE4B inhibition compared with PDE6 inhibition (pIC50 values)", "value": "inhibit PDE4B more strongly than they inhibit PDE3, PDE5 and PDE6"}
    ]}
  ]
}
